Assay results taken from patent US20080234262A1 (Wyeth, priority 2007, published 2008).

Legend:
[1] = molecular target: PI3K (Homo sapiens, UniProt P42336); test: Fluorescence polarization assay for PI3K; format: biochemical; details: PI3Kα; read-out: PI3Kα IC50;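 note: PI3K kinase reaction on PIP2 with ATP, 30-60 min, product sensed by GST-GRP with red probe in fluorescence polarization (mP), controls without enzyme and at zero time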
[2] = tested on: prostate line LNCap; test: In vitro cell culture growth assay (MTS), LNCap; format: cell-based, human; details: Homo sapiens, LNCaP, 72 h, LNCap cells, three days after drug treatment
[3] = tested on: breast line MDA468; test: In vitro cell culture growth assay (MTS), MDA468; format: cell-based, human; details: Homo sapiens, 72 h, MDA468 cells, three days after drug treatment
Outline: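 Cells were plated and, one day later, exposed to inhibitors for three days; viable cell density was then measured by metabolic conversion of MTS dye, read as absorbance at 490 nm. Growth is expressed as percent of vehicle-treated control cells on the same plate.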

PI3K, sequence (P42336 whole entry): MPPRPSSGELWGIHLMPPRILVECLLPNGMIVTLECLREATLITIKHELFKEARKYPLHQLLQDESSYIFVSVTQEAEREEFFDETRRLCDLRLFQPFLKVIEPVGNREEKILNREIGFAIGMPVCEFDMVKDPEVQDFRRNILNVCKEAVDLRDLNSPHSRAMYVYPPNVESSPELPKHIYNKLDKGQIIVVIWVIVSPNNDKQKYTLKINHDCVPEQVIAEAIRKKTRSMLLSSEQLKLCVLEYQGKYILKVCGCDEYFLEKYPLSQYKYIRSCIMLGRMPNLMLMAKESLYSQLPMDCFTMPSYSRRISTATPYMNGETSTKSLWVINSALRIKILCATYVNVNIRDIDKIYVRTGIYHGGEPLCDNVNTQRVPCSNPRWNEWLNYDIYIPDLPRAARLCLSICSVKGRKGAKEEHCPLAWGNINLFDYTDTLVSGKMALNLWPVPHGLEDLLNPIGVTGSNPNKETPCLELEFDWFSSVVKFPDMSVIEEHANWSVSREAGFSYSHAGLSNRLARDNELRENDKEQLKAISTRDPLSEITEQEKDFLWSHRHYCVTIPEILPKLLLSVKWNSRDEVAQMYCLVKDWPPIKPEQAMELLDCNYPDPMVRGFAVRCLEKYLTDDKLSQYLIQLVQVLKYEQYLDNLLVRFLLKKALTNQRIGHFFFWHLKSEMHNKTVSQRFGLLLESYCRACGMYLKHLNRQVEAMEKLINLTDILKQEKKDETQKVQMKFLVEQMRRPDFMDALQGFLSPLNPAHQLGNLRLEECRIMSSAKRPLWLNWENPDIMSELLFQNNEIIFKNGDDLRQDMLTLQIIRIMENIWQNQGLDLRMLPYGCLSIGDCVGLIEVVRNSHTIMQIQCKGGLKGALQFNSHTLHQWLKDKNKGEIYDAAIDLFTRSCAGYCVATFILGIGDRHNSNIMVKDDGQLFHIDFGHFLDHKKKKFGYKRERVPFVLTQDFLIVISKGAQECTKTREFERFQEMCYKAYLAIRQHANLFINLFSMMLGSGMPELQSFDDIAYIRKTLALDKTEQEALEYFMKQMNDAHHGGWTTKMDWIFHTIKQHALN
PI3K, sequence (P27986 whole entry partner): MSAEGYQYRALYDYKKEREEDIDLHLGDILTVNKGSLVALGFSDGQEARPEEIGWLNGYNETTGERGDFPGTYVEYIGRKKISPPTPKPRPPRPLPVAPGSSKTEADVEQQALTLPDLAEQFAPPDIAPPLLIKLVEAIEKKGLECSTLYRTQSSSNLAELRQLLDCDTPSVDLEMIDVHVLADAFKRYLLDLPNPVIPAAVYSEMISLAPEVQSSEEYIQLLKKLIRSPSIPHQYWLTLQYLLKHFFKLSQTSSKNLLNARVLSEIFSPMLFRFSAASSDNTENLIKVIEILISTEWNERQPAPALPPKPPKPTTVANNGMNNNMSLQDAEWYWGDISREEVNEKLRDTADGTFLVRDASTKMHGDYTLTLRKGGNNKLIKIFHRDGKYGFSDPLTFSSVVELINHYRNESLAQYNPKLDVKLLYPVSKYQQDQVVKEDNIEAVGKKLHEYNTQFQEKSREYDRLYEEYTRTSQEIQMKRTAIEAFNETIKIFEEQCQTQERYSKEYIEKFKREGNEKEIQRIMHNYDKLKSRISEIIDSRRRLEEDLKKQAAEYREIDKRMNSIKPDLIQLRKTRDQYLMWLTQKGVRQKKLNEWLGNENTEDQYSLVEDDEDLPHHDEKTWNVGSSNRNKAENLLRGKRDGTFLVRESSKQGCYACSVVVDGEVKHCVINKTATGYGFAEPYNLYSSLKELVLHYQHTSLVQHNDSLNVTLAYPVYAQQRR

Structure (SMILES)	IC50 [1] [nM]	IC50 [2] [nM]	IC50 [3] [nM]
O=C(Nc1ccc(-c2nc(N3CCOCC3)c3cnn(C4CCN(C(=O)OCc5ccccc5)CC4)c3n2)cc1)Nc1cccnc1 [Compound 881, benzyl 4-(4-morpholin-4-yl-6-{4-[(pyridin-3-ylcarbamoyl)amino]phenyl}-1H-pyrazolo[3,4-d]pyrimidin-1-yl)piperidine-1-carboxylate]	7	60	300
CC(C)(C)OC(=O)N1CCC(n2ncc3c(N4CCOCC4)nc(-c4ccc(NC(=O)Nc5ccon5)cc4)nc32)CC1 [Compound 882, tert-butyl 4-(6-{4-[(isoxazol-3-ylcarbamoyl)amino]phenyl}-4-morpholin-4-yl-1H-pyrazolo[3,4-d]pyrimidin-1-yl)piperidine-1-carboxylate]	113	70	490
Cc1cc(NC(=O)Nc2ccc(-c3nc(N4CCOCC4)c4cnn(C5CCN(C(=O)OC(C)(C)C)CC5)c4n3)cc2)on1 [Compound 883, tert-butyl 4-[6-(4-{[(3-methylisoxazol-5-yl)carbamoyl]amino}phenyl)-4-morpholin-4-yl-1H-pyrazolo[3,4-d]pyrimidin-1-yl]piperidine-1-carboxylate]	160	270	1300
CC(C)(C)OC(=O)N1CCC(n2ncc3c(N4CCOCC4)nc(-c4ccc(NC(=O)Nc5nccs5)cc4)nc32)CC1 [Compound 884, tert-butyl 4-(4-morpholin-4-yl-6-{4-[(1,3-thiazol-2-ylcarbamoyl)amino]phenyl}-1H-pyrazolo[3,4-d]pyrimidin-1-yl)piperidine-1-carboxylate]	264	260	1600
CC(C)(C)OC(=O)N1CCC(n2ncc3c(N4CCOCC4)nc(-c4ccc(NC(=O)Nc5cnccn5)cc4)nc32)CC1 [Compound 885, tert-butyl 4-(4-morpholin-4-yl-6-{4-[(pyrazin-2-ylcarbamoyl)amino]phenyl}-1H-pyrazolo[3,4-d]pyrimidin-1-yl)piperidine-1-carboxylate]	716	7300	24000
CC(C)(C)OC(=O)N1CCC(n2ncc3c(N4CCOCC4)nc(-c4ccc(NC(=O)Nc5ncccn5)cc4)nc32)CC1 [Compound 886, tert-butyl 4-(4-morpholin-4-yl-6-{4-[(pyrimidin-2-ylcarbamoyl)amino]phenyl}-1H-pyrazolo[3,4-d]pyrimidin-1-yl)piperidine-1-carboxylate]	1230	2600	6700
CCOC(=O)N1CCC(n2ncc3c(N4CCOCC4)nc(-c4ccc(Nc5ncc[nH]5)cc4)nc32)CC1 [Compound 887, ethyl 4-{6-[4-(1H-imidazol-2-ylamino)phenyl]-4-morpholin-4-yl-1H-pyrazolo[3,4-d]pyrimidin-1-yl}piperidine-1-carboxylate]	168	1200	2300
CCOC(=O)N1CCC(n2ncc3c(N4CCOC[C@H]4C)nc(-c4ccc(NC(=O)NC)cc4)nc32)CC1 [Compound 888, ethyl 4-(6-{4-[(methylcarbamoyl)amino]phenyl}-4-[(3R)-3-methylmorpholin-4-yl]-1H-pyrazolo[3,4-d]pyrimidin-1-yl)piperidine-1-carboxylate]	1990	10	220
CCNC(=O)Nc1ccc(-c2nc(N3CCOC[C@H]3C)c3cnn(C4CCN(C(=O)OCC)CC4)c3n2)cc1 [Compound 889, ethyl 4-(6-{4-[(ethylcarbamoyl)amino]phenyl}-4-[(3R)-3-methylmorpholin-4-yl]-1H-pyrazolo[3,4-d]pyrimidin-1-yl)piperidine-1-carboxylate]	4360	19	600
CCOC(=O)N1CCC(n2ncc3c(N4CCOC[C@H]4C)nc(-c4ccc(NC(=O)NCCF)cc4)nc32)CC1 [Compound 890, ethyl 4-{6-(4-{[(2-fluoroethyl)carbamoyl]amino}phenyl)-4-[(3R)-3-methylmorpholin-4-yl]-1H-pyrazolo[3,4-d]pyrimidin-1-yl}piperidine-1-carboxylate]	4550	12	500
CCOC(=O)N1CCC(n2ncc3c(N4CCOC[C@H]4C)nc(-c4ccc(NC(=O)Nc5ccccc5)cc4)nc32)CC1 [Compound 891, ethyl 4-(4-[(3R)-3-methylmorpholin-4-yl]-6-{4-[(phenylcarbamoyl)amino]phenyl}-1H-pyrazolo[3,4-d]pyrimidin-1-yl)piperidine-1-carboxylate]	590	20	210
CCOC(=O)N1CCC(n2ncc3c(N4CCOC[C@H]4C)nc(-c4ccc(NC(=O)Nc5cccnc5)cc4)nc32)CC1 [Compound 892, ethyl 4-(4-[(3R)-3-methylmorpholin-4-yl]-6-{4-[(pyridin-3-ylcarbamoyl)amino]phenyl}-1H-pyrazolo[3,4-d]pyrimidin-1-yl)piperidine-1-carboxylate]	453	0.8	70
CCOC(=O)N1CCC(n2ncc3c(N4CCOC[C@H]4C)nc(-c4ccc(NC(=O)Nc5ccncc5)cc4)nc32)CC1 [Compound 893, ethyl 4-(4-[(3R)-3-methylmorpholin-4-yl]-6-{4-[(pyridin-4-ylcarbamoyl)amino]phenyl}-1H-pyrazolo[3,4-d]pyrimidin-1-yl)piperidine-1-carboxylate]	517	5	180
CCNC(=O)Nc1ccc(-c2nc(N3CCOC[C@@H]3C)c3cnn(C4CCN(C(=O)OCC)CC4)c3n2)cc1 [Compound 894, ethyl 4-(6-{4-[(ethylcarbamoyl)amino]phenyl}-4-[(3S)-3-methylmorpholin-4-yl]-1H-pyrazolo[3,4-d]pyrimidin-1-yl)piperidine-1-carboxylate]	553	100	960
CCOC(=O)N1CCC(n2ncc3c(N4CCOC[C@@H]4C)nc(-c4ccc(NC(=O)NCCF)cc4)nc32)CC1 [Compound 895, ethyl 4-{6-(4-{[(2-fluoroethyl)carbamoyl]amino}phenyl)-4-[(3S)-3-methylmorpholin-4-yl]-1H-pyrazolo[3,4-d]pyrimidin-1-yl}piperidine-1-carboxylate]	521	100	950
CCOC(=O)N1CCC(n2ncc3c(N4CCOC[C@@H]4C)nc(-c4ccc(NC(=O)Nc5ccccc5)cc4)nc32)CC1 [Compound 896, ethyl 4-(4-[(3S)-3-methylmorpholin-4-yl]-6-{4-[(phenylcarbamoyl)amino]phenyl}-1H-pyrazolo[3,4-d]pyrimidin-1-yl)piperidine-1-carboxylate]	19	150	800
CCOC(=O)N1CCC(n2ncc3c(N4CCOC[C@@H]4C)nc(-c4ccc(NC(=O)Nc5cccnc5)cc4)nc32)CC1 [Compound 897, ethyl 4-(4-[(3S)-3-methylmorpholin-4-yl]-6-{4-[(pyridin-3-ylcarbamoyl)amino]phenyl}-1H-pyrazolo[3,4-d]pyrimidin-1-yl)piperidine-1-carboxylate]	28	40	320
CCOC(=O)N1CCC(n2ncc3c(N4CCOC[C@@H]4C)nc(-c4ccc(NC(=O)Nc5ccncc5)cc4)nc32)CC1 [Compound 898, ethyl 4-(4-[(3S)-3-methylmorpholin-4-yl]-6-{4-[(pyridin-4-ylcarbamoyl)amino]phenyl}-1H-pyrazolo[3,4-d]pyrimidin-1-yl)piperidine-1-carboxylate]	18	40	380
CCOC(=O)N1CCC(n2ncc3c(N4CCOC[C@@H]4C)nc(-c4ccc(NC(=O)Nc5ccc(N6CCOCC6)cc5)cc4)nc32)CC1 [Compound 899, ethyl 4-{4-[(3S)-3-methylmorpholin-4-yl]-6-(4-{[(4-morpholin-4-ylphenyl)carbamoyl]amino}phenyl)-1H-pyrazolo[3,4-d]pyrimidin-1-yl}piperidine-1-carboxylate]	30	6.8	150
CCOC(=O)Nc1ccc(-c2nc(N3CCOCC3)c3cnn(C4CCN(C(=O)OC)CC4)c3n2)cc1 [Compound 900, methyl 4-(6-{4-[(ethoxycarbonyl)amino]phenyl}-4-morpholin-4-yl-1H-pyrazolo[3,4-d]pyrimidin-1-yl)piperidine-1-carboxylate]	6720	760	> 60000
COC(=O)N1CCC(n2ncc3c(N4CCOCC4)nc(-c4ccc(NC(=O)OCCO)cc4)nc32)CC1 [Compound 901, methyl 4-[6-(4-{[(2-hydroxyethoxy)carbonyl]amino}phenyl)-4-morpholin-4-yl-1H-pyrazolo[3,4-d]pyrimidin-1-yl]piperidine-1-carboxylate]	557	30	280
COCCOC(=O)Nc1ccc(-c2nc(N3CCOCC3)c3cnn(C4CCN(C(=O)OC)CC4)c3n2)cc1 [Compound 902, methyl 4-[6-(4-{[(2-methoxyethoxy)carbonyl]amino}phenyl)-4-morpholin-4-yl-1H-pyrazolo[3,4-d]pyrimidin-1-yl]piperidine-1-carboxylate]	3050	3300	> 60000
COC(=O)N1CCC(n2ncc3c(N4CCOCC4)nc(-c4ccc(NC(=O)OCCN)cc4)nc32)CC1 [Compound 903, methyl 4-[6-(4-{[(2-aminoethoxy)carbonyl]amino}phenyl)-4-morpholin-4-yl-1H-pyrazolo[3,4-d]pyrimidin-1-yl]piperidine-1-carboxylate]	132	3200	8000
COC(=O)N1CCC(n2ncc3c(N4CCOCC4)nc(-c4ccc(NC(=O)OCCN(C)C)cc4)nc32)CC1 [Compound 904, methyl 4-{6-[4-({[2-(dimethylamino)ethoxy]carbonyl}amino)phenyl]-4-morpholin-4-yl-1H-pyrazolo[3,4-d]pyrimidin-1-yl}piperidine-1-carboxylate]	645	2300	7800
